Experimental data as given in US9682961B2, “Quinazoline derivative” (CARNA BIOSCIENCES, INC., priority 2013, dated 2017).

What follows are molecules tested on Wnt/β-catenin signaling pathway (assay: TCF-luciferase reporter gene assay (Wnt-3a stimulated HEK 293 cells)). Settings: Homo sapiens, HEK293, Wnt-3a stimulation, read-out: Inhibitory activity against the Wnt/β-catenin signaling pathway.
Type: cell-based
Protocol: Evaluation of inhibitory activity of the compounds of the present invention against the Wnt/β-catenin signaling pathway was performed by evaluating the inhibitory activity of the compounds of the present invention against the Wnt/β-catenin signaling pathway activated by the Wnt-3a ligand using a commercially available TCF-luciferase reporter gene assay system.
In a T75 flask, HEK 293 cells (ATCC No. CRL-1573) were added to a DMEM medium (manufactured by NACALAI TESQUE, INC., No. 08459-35) supplemented with 10% FBS (AusGeneX PTY LTD.) and 1% Penicillin/Streptomycin (NACALAI TESQUE, INC.). The cells in the flask were cultured in a 5% CO2 incubator.
The cultured HEK 293 cells were diluted with a DMEM medium supplemented with only 10% FBS so as to have a cell concentration of 2×10^5 cells/mL, and 100 μL each of the diluted cells were seeded into respective wells of 96-well plates (PerkinElmer Inc., ViewPlate No. 6005181), followed by culturing overnight in the 5% CO2 incubator. To an OptiMEM medium (Invitrogen® No. 11058), pGL4.49 [luc2p/TCF-LEF-RE/Hygro] plasmid DNA (Promega Corporation) and FuGENE® HD (Promega No. E2691) were added so as to have concentrations of 1 μg/mL and 3 μg/mL, respectively, to prepare a transfection solution as described in the protocol attached to the reagent. To the respective wells containing the HEK 293 cells cultured overnight, 100 μL each of the transfection solution was added gently, followed by culturing overnight in the 5% CO2 incubator to perform transfection.
To a DMEM medium, 0.5% charcoal/dextran treated Fetal Bovine Serum (Thermo Scientific No. SH30068.02) and LiCl (Sigma-Aldrich No. L9650) were added to prepare a LiCl-containing medium (final concentration of LiCl: 10 mM). The medium in the respective wells of the HEK 293 cells cultured overnight and transfected with a reporter gene was removed by decantation. The LiCl-containing medium (90 μL) was added gently to each well, followed by culturing overnight in the 5% CO2 incubator.
A DMSO stock solution of the compound to be tested was diluted 100-fold with a LiCl-containing medium so as to prepare a solution of the compound to be tested, which is 10 times the test concentration. Further, Recombinant Mouse Wnt-3a (R&D Systems, Inc. #1324-WN) was dissolved in a 0.1% BSA-PBA solution so as to have a concentration of 40 μg/mL, and the resultant solution was diluted with a LiCl-containing medium so as to have a concentration of 100 ng/mL, to prepare a Wnt-3a solution. To each well of the HEK 293 cells cultured overnight in the LiCl-containing medium, 10 μL each of the solution of the compound to be tested was added, followed by culturing in the 5% CO2 incubator for 2 hours (the final concentration of the compound to be tested: 3-0.03 μM). Thereafter, 10 μL each of the Wnt-3a solution was added to the respective wells, followed by further culturing for 5 hours.
Using ONE-Glo™ Luciferase Assay System (Promega Corporation, No. E6110), the luciferase activity of the cells in the wells was measured by a microplate reader (Synergy H1, BioTek Instruments, Inc.) An IC50 value was calculated from the luminescence intensity of each compound concentration, supposing that the luminescence intensity of a group with no addition of the compound and with Wnt-3a stimulation was 100%, and that the luminescence intensity of a group with no addition of the compound and with no Wnt-3a stimulation was 0%.
O[C@H]1CC[C@@H](Oc2cccc3cnc(Nc4ccc5ccncc5c4)nc23)CC1 [Example 40, cis-4-{[2-(isoquinolin-7-ylamino)quinazolin-8-yl]oxy}cyclohexanol] was tested, and the IC50 was 1 to 3 µM. Molecule OCc1n[nH]c2cc(Nc3ncc4ccc(F)c(O[C@H]5CC[C@@H](O)CC5)c4n3)ccc12 [Example 44, cis-4-[(7-fluoro-2-{[3-(hydroxymethyl)-1H-indazol-6-yl]amino}quinazolin-8-yl)oxy]cyclohexanol] has an IC50 of less than 0.3 µM. In the case of Cc1ccc2cc(Nc3ncc4cccc(O[C@H]5CC[C@@H](O)CC5)c4n3)ccc2n1 [Example 38, cis-4-({2-[(2-methylquinolin-6-yl)amino]quinazolin-8-yl}oxy)cyclohexanol], the IC50 is reported as 0.3 to 1 µM. Work on O[C@H]1CC[C@@H](Oc2cccc3cnc(Nc4ccc5ncccc5c4)nc23)CC1 [Example 35, cis-4-{[2-(quinolin-6-ylamino)quinazolin-8-yl]oxy}cyclohexanol] yielded an IC50 of 0.3 to 1 µM. Work on O[C@H]1CC[C@@H](Oc2cccc3cnc(Nc4cccc5cnccc45)nc23)CC1 [Example 41, cis-4-{[2-(isoquinolin-5-ylamino)quinazolin-8-yl]oxy}cyclohexanol] yielded an IC50 of 0.3 to 1 µM. OCc1cc(Nc2ncc3cccc(O[C@H]4CC[C@@H](O)CC4)c3n2)cc2[nH]cnc12 [Example 29, cis-4-[(2-{[4-(hydroxymethyl)-1H-benzo[d]imidazol-6-yl]amino}quinazolin-8-yl)oxy]cyclohexanol] was tested, and the IC50 was less than 0.3 µM. In the case of OCc1nc2cc(Nc3ncc4cccc(O[C@H]5CC[C@@H](O)CC5)c4n3)ccc2[nH]1 [Example 14, cis-4-[(2-{[2-(hydroxymethyl)-1H-benzo[d]imidazol-5-yl]amino}quinazolin-8-yl)oxy]cyclohexanol], the IC50 is reported as 0.3 to 1 µM. Work on Cc1cc2nc[nH]c2cc1Nc1ncc2cccc(O[C@H]3CC[C@@H](O)CC3)c2n1 [Example 30, cis-4-({2-[(5-methyl-1H-benzo[d]imidazol-6-yl)amino]quinazolin-8-yl}oxy)cyclohexanol] yielded an IC50 of 0.3 to 1 µM. With O[C@H]1CC[C@@H](Oc2cccc3cnc(Nc4ccc5scnc5c4)nc23)CC1 [Example 36, cis-4-{[2-(benzo[d]thiazol-5-ylamino)quinazolin-8-yl]oxy}cyclohexanol] the IC50 was less than 0.3 µM. O[C@H]1CC[C@@H](Oc2cc(F)cc3cnc(Nc4ccc5nc[nH]c5c4)nc23)CC1 [Example 32, cis-4-({2-[(1H-benzo[d]imidazol-6-yl)amino]-6-fluoroquinazolin-8-yl}oxy)cyclohexanol] gave an IC50 of 0.3 to 1 µM. With O[C@H]1CC[C@@H](Oc2c(F)ccc3cnc(Nc4ccc5ncsc5c4)nc23)CC1 [Example 42, cis-4-{[2-(benzo[d]thiazol-6-ylamino)-7-fluoroquinazolin-8-yl]oxy}cyclohexanol] the IC50 was less than 0.3 µM. Cc1nc2c(Br)cc(Nc3ncc4cccc(O[C@H]5CC[C@@H](O)CC5)c4n3)cc2[nH]1 [Example 19, cis-4-({2-[(4-bromo-2-methyl-1H-benzo[d]imidazol-6-yl)amino]quinazolin-8-yl}oxy)cyclohexanol] was tested, and the IC50 was 1 to 3 µM. In the case of COCc1nc2ccc(Nc3ncc4cccc(O[C@H]5CC[C@@H](O)CC5)c4n3)cc2[nH]1 [Example 25, cis-4-[(2-{[2-(methoxymethyl)-1H-benzo[d]imidazol-6-yl]amino}quinazolin-8-yl)oxy]cyclohexanol], the IC50 is reported as 0.3 to 1 µM. For Cc1nc2c(C)cc(Nc3ncc4cccc(O[C@H]5CC[C@@H](O)CC5)c4n3)cc2[nH]1 [Example 20, cis-4-({2-[(2,4-dimethyl-1H-benzo[d]imidazol-6-yl)amino]quinazolin-8-yl}oxy)cyclohexanol], the IC50 was 0.3 to 1 µM. Work on O[C@H]1CC[C@@H](Oc2cccc3cnc(Nc4ccnc5ccccc45)nc23)CC1 [Example 37, cis-4-{[2-(quinolin-4-ylamino)quinazolin-8-yl]oxy}cyclohexanol] yielded an IC50 of less than 0.3 µM. O[C@H]1CC[C@@H](Oc2cccc3cnc(Nc4ccnc5cc(F)ccc45)nc23)CC1 [Example 45, cis-4-({2-[(7-fluoroquinolin-4-yl)amino]quinazolin-8-yl}oxy)cyclohexanol] gave an IC50 of 0.3 to 1 µM. O[C@H]1CC[C@@H](Oc2c(Br)ccc3cnc(Nc4ccc5nc[nH]c5c4)nc23)CC1 [Example 31] showed an IC50 of less than 0.3 µM. COc1ccc2c(Nc3ncc4cccc(O[C@H]5CC[C@@H](O)CC5)c4n3)ccnc2c1 [Example 46, cis-4-({2-[(7-methoxyquinolin-4-yl)amino]quinazolin-8-yl}oxy)cyclohexanol] was tested, and the IC50 was 0.3 to 1 µM. In the case of O[C@H]1CC[C@@H](Oc2c(F)ccc3cnc(Nc4ccc5ncccc5c4)nc23)CC1 [Example 43, cis-4-{[7-fluoro-2-(quinolin-6-ylamino)quinazolin-8-yl]oxy}cyclohexanol], the IC50 is reported as less than 0.3 µM. O[C@H]1CC[C@@H](Oc2cccc3cnc(Nc4ccc5cnccc5c4)nc23)CC1 [Example 39, cis-4-{[2-(isoquinolin-6-ylamino)quinazolin-8-yl]oxy}cyclohexanol] gave an IC50 of 0.3 to 1 µM. Work on C[C@H](O)c1nc2ccc(Nc3ncc4cccc(O[C@H]5CC[C@@H](O)CC5)c4n3)cc2[nH]1 [Example 27, cis-4-{[2-({2-[(S)-1-hydroxyethyl]-1H-benzo[d]imidazol-6-yl}amino)quinazolin-8-yl]oxy}cyclohexanol] yielded an IC50 of 0.3 to 1 µM. In the case of Cc1ccc2cnc(Nc3ccc4nc[nH]c4c3)nc2c1O[C@H]1CC[C@@H](O)CC1 [Example 17, cis-4-({2-[(1H-benzo[d]imidazol-6-yl)amino]-7-methylquinazolin-8-yl}oxy)cyclohexanol], the IC50 is reported as 0.3 to 1 µM. Molecule Cc1nc2ccc(Nc3ncc4ccc(Br)c(O[C@H]5CC[C@@H](O)CC5)c4n3)cc2[nH]1 [Example 18, cis-4-({7-bromo-2-[(2-methyl-1H-benzo[d]imidazol-6-yl)amino]quinazolin-8-yl}oxy)cyclohexanol] has an IC50 of 0.3 to 1 µM. O[C@H]1CC[C@@H](Oc2cccc3cnc(Nc4ccc5nc(C(F)(F)F)[nH]c5c4)nc23)CC1 [Example 26, cis-4-((2-{[2-(trifluoromethyl)-1H-benzo[d]imidazol-6-yl]amino}quinazolin-8-yl)oxy)cyclohexanol] gave an IC50 of 1 to 3 µM. Molecule O[C@H]1CC[C@@H](Oc2cccc3cnc(Nc4ccc5[nH]c(CN6CCCC6)nc5c4)nc23)CC1 [Example 13, cis-4-[(2-{[2-(pyrrolidin-1-ylmethyl)-1H-benzo[d]imidazol-5-yl]amino}quinazolin-8-yl)oxy]cyclohexanol] has an IC50 of less than 0.3 µM.
